{"source": "patent US10130590B2", "about": "“Methods of treating cancer with atovaquone-related compounds” (DANA-FARBER CANCER INSTITUTE, INC., priority 2013, dated 2018)", "key": {"eIF2α/ATF4 pathway": {"tested_on": "eIF2α/ATF4 pathway", "assay": "Western blot / qRT-PCR of phospho-eIF2α/ATF4 pathway", "format": "cell-based", "procedure": "Western blotting was performed as previously described (Battle T E, Arbiser J, & Frank D A (2005) The natural product honokiol induces caspase dependent apoptosis in B-cell chronic lymphocytic leukemia (B-CLL) cells. Blood 106(2):690-697). Antibodies to phospho-MAPK (9101), total MAPK (9102), phospho-Y705 STAT3 (9131), phospho-S6 (2215), total S6 (2217), phospho-4E-BP1 (9451), total 4E-BP1 (9644), total RSK (9355), phospho-S6K (9234, 85 used at 1:5000), total S6K (2708), phospho-eIF2α (9721, used at 1:1000), total eIF2α (5324), ATF4 (11815, used at 1:1000), PDGFRβ (3169), IGF1Rβ (9750), EGFR (2232), and HER2 (2242) were from Cell Signaling Technology. Phospho-RSK antibody was from R&D (AF889). Antibodies to total STAT3 (sc-482) and gp130 (sc-656, used at 1:1000) were from Santa Cruz Biotechnology. Phospho-S727 STAT3 antibody was described previously (229). REDD1 antibody was from Proteintech (10638-1-AP, used at 1:1000). Antibody recognizing full-length and cleaved ATF6 was from Abcam (ab122897, used at 1:1000). Antibodies to tubulin (T5168) and beta actin (A5316) were from Sigma. All antibodies were used at 1:10000 dilution for western blot unless otherwise noted. For immunoprecipitations, cells were lysed in 500 μl lysis buffer (0.5% NP-40, 150 mM NaCl, 50 mM Tris pH 7.5, with protease and phosphatase inhibitors freshly added at 1:100 [Pierce, PI78443]) on ice for 15 minutes, then centrifuged for 10 minutes at 14,000 RPM and 4° C. The supernatant was transferred to a new tube and incubated with 10 μl JAK2 antibody (Santa Cruz sc-278) or a mix of two TYK2 antibodies, 10 μl of each (Santa Cruz sc-5271 and Cell Signaling Technology 9312). Immunoprecipitation was performed overnight at 4° C. with rotation. The next day, 75 μl of protein A/G beads (Santa Cruz sc-2003) were washed twice in lysis buffer, then incubated with immunoprecipitates overnight as before. The next day, the beads were spun down (1 min. at 7,500 RPM and 4° C.) and washed 3 times with 650 μl lysis buffer for 10 minutes at 4° C. with rotation, then boiled in 50 μl sample buffer+10% β-mercaptoethanol. For Western blot, 20 μl were loaded per lane. For detection of phospho-tyrosine, a mixture of two pan-phospho-tyrosine antibodies (Cell Signaling Technology 9411 and 9416, 1:1000 of each) was used. Antibody to phospho-Y1007/1008 JAK2 was from Cell Signaling 86 Technology (3771, used at 1:1000). Antibody to phospho-Y570 JAK2 was from Millipore (09-241, used at 1:1000). Luminometric Assays Luciferase reporter cell lines were described previously (186). Firefly luciferase values were normalized by concurrent cell viability. Cell viability was measured as ATP-dependent luminescence by Cell Titer Glo (Promega).\nIn asking how atovaquone induces REDD1, a possible role for ATF4, which regulates REDD1 expression was considered. ATF4 is regulated mainly at the level of translation and is induced upon phosphorylation of eIF2α. […] K562 and AML2 cells, which lack STAT3 activation, were treated with rapamycin for 72 hours. […] For these reasons, it was hypothesized that atovaquone induces eIF2α phosphorylation, with a resulting increase in ATF4 protein and signaling. U266, K562, and SKBR3 cells were treated with atovaquone (20, 20, 25 μM respectively). […] The phospho-eIF2α/ATF4 pathway represents one branch of the UPR, whose other branches consist of ATF6 cleavage and IRE1-mediated XBP1 splicing. […] Thus, atovaquone selectively activates the phospho-eIF2α/ATF4 branch of the UPR. […]"}, "gp130": {"tested_on": "gp130", "assay": "Flow cytometry of cell-surface gp130", "format": "cell-based", "procedure": "Annexin V/PI staining was performed using Annexin V:FITC Apoptosis Detection Kit I (BD Biosciences). Staining for cell cycle analysis was performed as previously described (267). Staining for cell-surface receptors was performed in 50 μl PBS+2% FBS with 2 μl antibody to IL6R (BioLegend #352803) or 5 μl antibody to gp130 (BD Biosciences #555757) for 20 minutes on ice in the dark. Cells were washed twice, then resuspended in 300 μl of the same buffer. Samples were analyzed on a BD FACSCanto II machine. Transfection and siRNA Cells were reverse-transfected using Lipofectamine RNAiMAX (Invitrogen); the culture medium was changed 24 hours later. Control siRNA (D-001210-02) and REDD1 siRNA (M-010855-01) were from Thermo Scientific Dharmacon.\nSince atovaquone reduced gp130 expression at the cell surface, it was asked whether this effect was accompanied by reduced total gp130 in the cell. To address this question, a time course of atovaquone treatment was performed and total cellular gp130 was measured by Western blotting in U266 cells treated with atovaquone at 20 μM. […] Thus, it was surmised that atovaquone also rapidly downregulates cell-surface gp130, paralleling STAT3 inhibition and preceding the decrease in total gp130. […] Loss of cell-surface gp130 may be due to decreased entry into the plasma membrane or increased internalization. In either case, the decrease in total gp130 observed at longer time points is likely due to degradation of relatively unstable intracellular gp130."}, "[1]": {"conditions": "U266, K562, SKBR3, 20, 20, 25 μM"}}, "data": [{"smiles": "O=C1C(O)=C([C@H]2CC[C@H](c3ccc(Cl)cc3)CC2)C(=O)c2ccccc21", "note": "[atovaquone, trans-2-[4-(4-chlorophenyl)cyclohexyl]-3-hydroxy-1,4-naphthalenedione]", "values": [{"measurement": "CHAC1 expression", "setting": "eIF2α/ATF4 pathway", "result": "consistently upregulated"}, {"measurement": "CHOP expression", "setting": "eIF2α/ATF4 pathway", "result": "strongly upregulates CHOP"}, {"measurement": "expression of ATF4 mRNA", "setting": "eIF2α/ATF4 pathway; U266, 15 μM, 2 hours", "result": "unchanged"}, {"measurement": "ATF4 protein levels", "setting": "eIF2α/ATF4 pathway; [1]", "result": "increased ATF4 protein levels"}, {"measurement": "eIF2α phosphorylation", "setting": "eIF2α/ATF4 pathway; [1]", "result": "induced eIF2α phosphorylation"}, {"measurement": "cell surface gp130 in INA-6 and HEL cells", "setting": "gp130; INA-6 20 μM 4 hours, HEL 25 μM 6 or 16 hours", "result": "induced downregulation of cell surface gp130"}, {"measurement": "cell-surface expression of gp130, flow cytometric time course", "setting": "gp130; U266, 20 μM", "result": "rapidly inhibits the cell-surface expression of gp130"}, {"measurement": "cell-surface expression of gp130", "setting": "gp130; U266, 2.5 hours, atovaquone 20 μM, JAK inhibitor 1 1 μM, brefeldin A 3 μg/ml", "result": "substantially downregulated the cell-surface expression of gp130"}]}]}
